Measured values as given in patent US20240041870A1, “METHODS OF TREATING SYSTEMIC LUPUS ERYTHEMATOSUS” (AbbVie Inc., priority 2022, published 2024).

How the values were obtained:
[1] = test system: subjects with moderately to severely active SLE; assay: Phase 2 Study M19-130: safety and efficacy of upadacitinib vs placebo, 48-week treatment period; type: in vivo, human
Source text: This was a Phase 2 Study (M19-130) to Investigate the Safety and Efficacy of Upadacitinib Given in Subjects with Moderately to Severely Active Systemic Lupus Erythematosus.
Subjects must have had active SLE by SLEDAI-2K ≥6 as reported and independently adjudicated (clinical score ≥4, excluding lupus headache and/or organic brain syndrome) at Screening and Baseline. If 4 points of the required entry points were for arthritis, there must also have been a minimum of 3 tender and 3 swollen joints.
The primary efficacy endpoint was achievement of SLE Responder Index (SRI)-4 and steroid dose ≤10 mg prednisone equivalent once a day (QD) at Week 24. SLE Responder Index (SRI)-4 is defined as ≥4-point reduction in Systemic Lupus Erythematosus Disease Activity Index 2000 (SLEDAI-2K) score without worsening of the overall condition (no worsening in Physician's Global Assessment [PhGA], <0.3 point increase) or the development of significant disease activity in new organ systems (no new British Isles Lupus Assessment Group ([BILAG]) A or >1 new BILAG B).
The following secondary efficacy endpoints were evaluated: • 1. Achievement of SRI-4 at Week 24 • 2. Achievement of BILAG-Based Combined Lupus Assessment (BICLA) response at Week 24 • 3. Achievement of Lupus Low Disease Activity State (LLDAS) at Week 24 • 4. Steroid burden, assessed as change from Baseline at Week 24 • 5. Number of mild, moderate, or severe flares per patient-year (respectively and overall) by Safety of Estrogens in Lupus Erythematosus National Assessment (SELENA) SLEDAI Flare Index (SFI), assessed by number and types of flare per subject through Week 24
The following additional efficacy endpoints were evaluated at all visits unless otherwise noted: • 1. Achievement of SRI-4 • 2. Achievement of SRI-5, -6, -7, -8 and steroid dose ≤10 mg prednisone equivalent QD at Weeks 24 and 48 • 3. Achievement of SRI-5, -6, -7, -8 • 4. Achievement of BICLA response • 5. Achievement of LLDAS • 6. Achievement of ≥4-point decrease in SLEDAI-2K from Baseline • 7. Steroid burden, assessed as change from Baseline • 8. Number of mild, moderate, or severe flares per patient-year (respectively and overall) by SELENA SFI, assessed by number and types of flare per subject through Week 24 and Week 48 • 9. Time to first flare by SELENA SFI after first study drug administration up to Week 24 and Week 48 • 10. Achievement of 50% reduction of tender or swollen lupus joints defined as ≥50% decrease in either tender or swollen joints (of those starting with total ≥6 affected joints) • 11. Achievement of 50% reduction in Cutaneous Lupus Erythematosus Disease Area and Severity Index (CLASI) activity score (of those starting with CLASI ≥10) • 12. Change in SLEDAI-2K from Baseline • 13. Change in BILAG from Baseline • 14. Change in PhGA from Baseline • 15. Change in Patient Global Assessment (PtGA) from Baseline • 16. Change from Baseline in Functional Assessment of Chronic Illness Therapy (FACIT)—Fatigue at Weeks 2, 12, 24, and 48 • 17. Change from Baseline in 36-Item Short Form Health Survey (SF-36) at Weeks 2, 12, 24, and 48 • 18. Change from Baseline Lupus Quality of Life questionnaire (LupusQoL) at Weeks 2, 12, 24, and 48 • 19. Change from Baseline Pain Numerical Rating Scale (NRS) at Weeks 2, 12, 24, and 48
The study was designed to investigate the safety and efficacy of upadacitinib in subjects with moderately to severely active SLE despite standard of care therapy. The study duration included a 42-day maximum screening period, a 48-week randomized, placebo-controlled, double-blind, parallel-group treatment period, and a 30-day follow-up phone call. The Week 24 Primary Analysis was performed when all subjects completed the Week 24 visit or discontinued the study. Sites and subjects remained blinded throughout the study. The study team remained blinded until the Week 24 Primary Analysis. […]

[2] = Upadacitinib pharmacokinetics in Study M19-130 (model-estimated steady-state exposure); type: in vivo, human; conditions: 30 mg QD; subjects with SLE; plasma
Source text: Upadacitinib plasma concentrations were summarized at each sampling time point using descriptive statistics. A mixed-effects modeling approach may have been used to estimate the population central value and the empirical Bayesian estimates of the individual values for upadacitinib oral clearance (CL/F) and volume of distribution (Vss/F). Additional parameters and pharmacokinetic (PK)/pharmacodynamic relationships may have been estimated if useful in the interpretation of the data.
The model-estimated median ([…]) steady-state (SS) Cavg in subjects with SLE was 28.4 (19.1-46.6) ng/mL for upadacitinib 30 mg QD.

[3] = 30 mg QD oral, N = 62, Week 24 interim analysis (Example 1)
[4] = 30 mg QD oral, N = 62, Week 24 interim analysis (Example 1), listed as UPA
[5] = 30 mg QD oral, N = 62, final database (Example 2)
[6] = 30 mg QD oral, N = 62, full analysis set, Week 24 interim analysis (Example 1)
[7] = 30 mg QD oral, final database (Example 2)
[8] = 30 mg QD vs PBO (N = 75), stratum-adjusted, final database (Example 2)
[9] = 30 mg QD, N = 62, subject disposition, Week 24 interim analysis

model-estimated median (prediction interval) steady-state (SS) Cavg [2]: 28.4 (19.1-46.6) ng/mL
Structure (SMILES): CC[C@@H]1CN(C(=O)NCC(F)(F)F)C[C@@H]1c1cnc2cnc3[nH]ccc3n12 [Upadacitinib, (3S,4R)-3-ethyl-4-(3H-imidazo[1,2-a]pyrrolo[2,3-e]pyrazin-8-yl)-N-(2,2,2-trifluoroethyl)pyrrolidine-1-carboxamide]
Prednisone Equivalent Steroid Dose; Week 48; LS Mean Change (SE) ([1]; 30 mg QD oral, N = 38, final database (Example 2)): −1.20 (0.524) | Prednisone Equivalent Steroid Dose at Week 24; LS Mean Change (SE) ([1]; 30 mg QD oral, N = 48, change from Baseline, Week 24 interim analysis (Example 1)): −0.64 (0.486) | Prednisone Equivalent Steroid Dose; Week 24; LS Mean Change (SE) ([1]; 30 mg QD oral, N = 48, final database (Example 2)): −0.62 (0.496) | BICLA at Week 24; % [1, 3]: 58.1% | BICLA at Week 24; n [1, 3]: 36 n | Flares per SELENA SLEDAI Flare Index through Week 24; Any flares [1, 3]: 1.73 Events/PY | Flares per SELENA SLEDAI Flare Index through Week 24; Mild/Moderate [1, 3]: 1.66 Events/PY | Flares per SELENA SLEDAI Flare Index through Week 24; Severe [1, 3]: 0.07 Events/PY | LLDAS at Week 24; % [1, 3]: (43.5) % | LLDAS at Week 24; n [1, 3]: 27 n | SRI-4 at Week 24; % [1, 3]: 53.6% | SRI-4 at Week 24; n [1, 3]: 33 n | BICLA at Week 24; % [1, 4]: (58.1) % | SRI-4 at Week 24; % [1, 4]: (53.2) % | BICLA; Week 24; % [1, 5]: (58.1) % | BICLA; Week 24; n [1, 5]: 36 n | BICLA; Week 48; % [1, 5]: (53.2) % | BICLA; Week 48; n [1, 5]: 33 n | Flares per SELENA SLEDAI Flare Index Through Week 48; Any flares [1, 5]: 2.04 Events/PY | Flares per SELENA SLEDAI Flare Index Through Week 48; Mild/Moderate [1, 5]: 1.88 Events/PY | Flares per SELENA SLEDAI Flare Index Through Week 48; Severe [1, 5]: 0.16 Events/PY | Flares per SELENA SLEDAI Flare Index through Week 24; Any flares [1, 5]: 1.87 Events/PY | Flares per SELENA SLEDAI Flare Index through Week 24; Mild/Moderate [1, 5]: 1.76 Events/PY | Flares per SELENA SLEDAI Flare Index through Week 24; Severe [1, 5]: 0.10 Events/PY | LLDAS; Week 24; % [1, 5]: (45.2) % | LLDAS; Week 24; n [1, 5]: 28 n | LLDAS; Week 48; % [1, 5]: (50.0) % | LLDAS; Week 48; n [1, 5]: 31 n | SRI-4; Week 24; % [1, 5]: (56.5) % | SRI-4; Week 24; n [1, 5]: 35 n | SRI-4; Week 48; % [1, 5]: 45.2% | SRI-4; Week 48; n [1, 5]: 28 n | SRI-4 and Prednisone Equivalent Steroid Dose ≤10 mg; Week 24; % [1, 5]: (54.8) % | SRI-4 and Prednisone Equivalent Steroid Dose ≤10 mg; Week 48; % [1, 5]: (43.5) % | SRI-4 and Prednisone Equivalent Steroid Dose ≤10 mg; Week 48; n [1, 5]: 27 n | SRI-4; Week 48; % ([1]; 30 mg QD oral, N = 62, final database (Example 2), listed as UPA): (45.2) % | SRI-4 and Prednisone Equivalent Steroid Dose ≤10 mg at Week 24; % [1, 6]: 51.6% | SRI-4 and Prednisone Equivalent Steroid Dose ≤10 mg at Week 24; n [1, 6]: 32 n | SRI-4 and Prednisone Equivalent Steroid Dose ≤10 mg at Week 24; % ([1]; 30 mg QD oral, N = 62, full analysis set, Week 24 interim analysis (Example 1), listed as UPA): (51.6) % | SRI-4 and Prednisone Equivalent Steroid Dose ≤10 mg; Week 24; n ([1]; 30 mg QD oral, N = 62, full analysis set, final database (Example 2)): 34 n | 50% Reduction of Tender or Swollen Lupus Joints among Subjects with Total >=6 Affected Joints; Week 24; % [1, 7]: (67.8) % | 50% Reduction of Tender or Swollen Lupus Joints among Subjects with Total >=6 Affected Joints; Week 24; n [1, 7]: 40/59 | 50% Reduction of Tender or Swollen Lupus Joints among Subjects with Total >=6 Affected Joints; Week 48; % [1, 7]: (57.6) % | 50% Reduction of Tender or Swollen Lupus Joints among Subjects with Total >=6 Affected Joints; Week 48; n [1, 7]: 34/59 | BICLA; Week 48; Adj. Diff (−PBO) [95% CI] [1, 8]: 30.8 | SRI-4; Week 48; Adj. Diff (−PBO) [95% CI] [1, 8]: 30.4 | SRI-4 and Steroid Dose ≤10 mg prednisone equivalent QD; stratum-adjusted treatment difference ([1]; 30 mg QD vs placebo, Week 24, Example 1): 14.0% | Discontinued from the Study Drug (All Reasons): Adverse event; % [1, 9]: 9.7% | Discontinued from the Study Drug (All Reasons): Adverse event; n [1, 9]: 6 n | Discontinued from the Study Drug (Primary Reasons): Adverse event; % [1, 9]: 8.1% | Discontinued from the Study Drug (Primary Reasons): Adverse event; n [1, 9]: 5 n | Withdrawal from the Study (All Reasons): Adverse event; % [1, 9]: 6.5% | Withdrawal from the Study (All Reasons): Adverse event; n [1, 9]: 4 n | Withdrawal from the Study (Primary Reasons): Adverse event; % [1, 9]: 4.8% | Withdrawal from the Study (Primary Reasons): Adverse event; n [1, 9]: 3 n | response rate in BICLA after Week 24 ([1]; 30 mg, Week 24 to Week 48): generally maintained | response rate in SRI-4 after Week 24 ([1]; 30 mg, Week 24 to Week 48): generally maintained | flare compared to placebo ([1]; 30 mg, over 48 weeks): reductions in flare | time-to-first flare compared to placebo ([1]; 30 mg, over 48 weeks): delays in time-to-first flare | LLDAS at Week 24 compared with placebo ([1]; 30 mg, p<0.001, Example 1): greater efficacy than placebo | flare rate through Week 24 compared with placebo ([1]; 30 mg, p=0.075, Example 1): lower flare rate | response rate for achievement of BICLA at Week 48 ([1]; 30 mg, text of Example 2): 53.2%
